Values of other authors, collected in patent US12151031B2, “Topical copper tripeptide composition” (YUVAN RESEARCH, INC., priority 2018, dated 2024).

Conditions: in vivo

glycyl-histidyl-lysin tripeptide in the form of its Cu Complex [GHK-Cu]
Elimination half-life: 1.5 to 2 h
